# In patent publication US8003400B2, “Measurement of vitamin D” (Roche Diagnostics Operations, Inc., priority 2006, dated 2011):
# Molecular target: T1, vitamin D binding protein (Homo sapiens, UniProt P02774)
# T1 sequence (P02774 17-474): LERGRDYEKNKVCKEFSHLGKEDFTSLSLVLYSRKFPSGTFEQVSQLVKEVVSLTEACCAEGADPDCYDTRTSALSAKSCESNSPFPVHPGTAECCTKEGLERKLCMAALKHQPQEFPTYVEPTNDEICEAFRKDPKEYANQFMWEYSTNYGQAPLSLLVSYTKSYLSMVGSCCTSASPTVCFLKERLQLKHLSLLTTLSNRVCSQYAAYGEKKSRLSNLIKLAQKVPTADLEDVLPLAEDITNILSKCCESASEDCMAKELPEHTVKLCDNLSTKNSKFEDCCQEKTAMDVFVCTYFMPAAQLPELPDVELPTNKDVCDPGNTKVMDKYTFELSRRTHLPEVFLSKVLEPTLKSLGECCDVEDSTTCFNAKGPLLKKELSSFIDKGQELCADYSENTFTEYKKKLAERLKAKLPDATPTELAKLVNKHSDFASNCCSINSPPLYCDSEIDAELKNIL
# Experiment: BIACORE assessment of release of vitamin D binding protein from immobilised biotinylated 25-hydroxyvitamin D3
# Details: BIACORE streptavidin chip saturated with biotinylated 25-hydroxyvitamin D3 and vitamin D binding protein; release monitored for 3 min
# Source text: For this assessment a streptavidin-coated BIACORE chip is used. This streptavidin-chip is then saturated with a biotinylated 25-hydroxyvitamin D3 and thereafter with vitamin D binding protein. […] The BIACORE system is used to assess whether a reagent considered to be a potential candidate for releasing vitamin D from vitamin D binding protein will be efficient in releasing of vitamin D binding protein to a vitamin D metabolite. A sensor chip coated with streptavidin (Sensor Chip SA, BIACORE AB, BR-1000-32) is used for immobilization of a biotinylated vitamin D metabolite of interest. The assessment is best performed by use of the vitamin D metabolite 25OH vitamin D3. The sensor chip is first incubated with a saturating concentration of biotinylated 25-hydroxyvitamin D3, Then the chip is loaded with a saturating amount of vitamin D binding protein. Then the vitamin D binding protein saturated chip is incubated with a sodium chloride solution one the one hand and a candidate vitamin D releasing reagent in various concentrations on the other hand. The release of vitamin D binding protein is monitored for 3 min. A candidate vitamin D releasing reagent causing the release of at least […] vitamin D binding protein in the above system is appropriate to meet the minimal requirements for a vitamin D releasing reagent used in the detection of a vitamin D metabolite in a sample of serum or plasma 25-hydroxyvitamin D3. Between each run the 25-hydroxyvitamin D3-coated SA-chip is regenerated by washing it with 10 mM Gly/HCl pH 1.7 for 1 min. As non-specific control a reference flow cell coated with biotin on the same chip was used. The data of the reference flow cell are subtracted from those of the biospecific flow cell. Thus specific data free of non-specific effects are obtained.
row,Concentration of releasing reagent required for release off >95% vitamin D binding protein from 25OH-vitamin D3 [% volume/volume],Compound
1,8,"CCCCn1cc[n+](C)c1.F[B-](F)(F)F [BMI-TFB, 1-Butyl-3-methyl-imidazolium-tetrafluoroborate]"
2,3,"CCCCCCCC[n+]1ccccc1.[Cl-] [NOP-Cl, N-Octylpyridinium-chloride]"
3,3,"CCCCCCCC[N+]1(C)CCCC1.[Cl-] [MOP-Cl, 1-Methyl-1-octyl-pyrrolidinium-chloride]"
4,6,"CCCC[n+]1ccc(C)cc1.F[B-](F)(F)F [BMP-TFB, 1-Butyl-4-methyl-pyridinium-tetrafluoroborate]"
5,6,"CCCCCC[n+]1ccccc1.[Cl-] [HP-Cl, 1-Hexylpyridinium-chloride]"

row,Compound,Concentration of releasing reagent required for release off >95% vitamin D binding protein from 25OH-vitamin D3 [% volume/volume]
1,1-Butyl-3-methyl-imidazolium-octylsulfate [BMI-OSO4],0.5
2,"CCCC[n+]1cccc(C)c1.[Cl-] [BMP-Cl, 1-Butyl-3-methyl-pyridinium-chloride]",12
3,"CCCC[n+]1cccc(C)c1.N#C[S-] [BMP-SCN, 1-Butyl-3-methyl-pyridinium-thiocyanate]",6
